In BindingDB's records for doi:10.7270/Q2PR7TCX (The Scripps Research Institute Molecular Screening Center, 2007):
Where a name gives a salt, the structure may show the parent alone.

Each molecule was assayed against Steroidogenic factor 1 (Homo sapiens, UniProt Q13285) (assay: inhibition of SF-1 LBD-driven luciferase – cell-based, CHO-K1, Gal4-SF-1 LBD, luciferase luminescence, counter-screen for RORA inhibitor project, dose response (AID 611)). Conditions: not given.
Steroidogenic factor 1, sequence (Q13285 whole entry, the tested form may be a part): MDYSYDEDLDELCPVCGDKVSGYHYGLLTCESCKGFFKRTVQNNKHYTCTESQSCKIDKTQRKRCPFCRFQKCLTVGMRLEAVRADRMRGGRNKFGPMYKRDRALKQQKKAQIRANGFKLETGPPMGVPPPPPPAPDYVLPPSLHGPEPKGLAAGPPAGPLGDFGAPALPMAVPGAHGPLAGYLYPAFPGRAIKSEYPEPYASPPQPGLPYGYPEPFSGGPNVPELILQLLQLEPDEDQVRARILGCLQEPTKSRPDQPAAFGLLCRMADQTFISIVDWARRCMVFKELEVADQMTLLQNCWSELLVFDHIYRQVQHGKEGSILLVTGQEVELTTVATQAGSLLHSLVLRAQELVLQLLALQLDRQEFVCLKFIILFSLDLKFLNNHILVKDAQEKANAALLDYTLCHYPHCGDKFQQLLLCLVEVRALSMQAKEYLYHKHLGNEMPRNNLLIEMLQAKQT

Compound | IC50
Cc1csc(SCC(=O)c2cc(C)n(Cc3cccs3)c2C)n1 [1-[2,5-dimethyl-1-(2-thenyl)pyrrol-3-yl]-2-[(4-methylthiazol-2-yl)thio]ethanone] | 9.88 µM
Cc1cc(-n2c(C)cc(C(=O)CSc3ncnc4ccccc34)c2C)no1 [1-[2,5-dimethyl-1-(5-methyl-1,2-oxazol-3-yl)pyrrol-3-yl]-2-quinazolin-4-ylsulfanyl-ethanone] | 6.03 µM
Cc1ccc(-c2csc3ncnc(Sc4nnc(CN5CCCCCC5=O)o4)c23)cc1 [1-[[5-[5-(4-methylphenyl)thieno[2,3-d]pyrimidin-4-yl]sulfanyl-1,3,4-oxadiazol-2-yl]methyl]azepan-2-one] | 7.12 µM
Nc1nnnn1N=C/C(Br)=C/c1ccccc1 [1-[[(Z)-2-bromanyl-3-phenyl-prop-2-enylidene]amino]-1,2,3,4-tetrazol-5-amine] | 4.19 µM
C=CS(=O)(=O)c1ccc(Oc2ccc(S(=O)(=O)C=C)cc2)cc1 [1-ethenylsulfonyl-4-(4-ethenylsulfonylphenoxy)benzene] | 5.29 µM
CCn1nc(-c2cccs2)nc2c(=O)n(C)c(=O)nc1-2 [1-ethyl-6-methyl-3-thiophen-2-yl-pyrimido[5,4-e][1,2,4]triazine-5,7-dione] | 2.19 µM
c1ccc(-n2ncc3c(N4CCCCC4)ncnc32)cc1 [1-phenyl-4-(1-piperidinyl)pyrazolo[3,4-d]pyrimidine] | 4.47 µM
Cc1ccc(-c2cn3nc(C)c(C)nc3n2)cc1 [2,3-dimethyl-6-(4-methylphenyl)imidazo[1,2-b][1,2,4]triazine] | 4.13 µM
COc1ccc(C(=O)Nc2ccc(C)cn2)c(OC)c1 [2,4-dimethoxy-N-(5-methylpyridin-2-yl)benzamide] | > 1.22 µM
O=C(c1ccccc1)C(CCC(CN1CCOCC1)C(=O)c1ccccc1)CN1CCOCC1 (stereo unspecified) [2,5-bis(4-morpholinylmethyl)-1,6-diphenylhexane-1,6-dione;hydrochloride] | 18 µM
Cc1oc2cc3c(C(=O)OCCN(C)C)c(C)oc3cc2c1C(=O)OCCN(C)C [2,6-Dimethyl-benzo[1,2-b;4,5-b']difuran-3,7-dicarboxylic acid bis-(2-dimethylamino-ethyl) ester] | 0.892 µM
c1ccc(-c2cccc(-c3ccccn3)n2)nc1 [2,6-bis(2-pyridinyl)pyridine] | 2.81 µM
O=NC1c2cc(S(=O)(=O)N3CCCCC3)ccc2-c2ccc(S(=O)(=O)N3CCCCC3)cc21 [2,7-Bis-(piperidine-1-sulfonyl)-fluoren-9-one oxime] | 2.14 µM
O=c1c2ccccc2cnn1-c1nc2ccccc2s1 [2-(1,3-benzothiazol-2-yl)-1-phthalazinone] | 0.728 µM
c1ccc2nc(-c3nc4ccccc4o3)ccc2c1 [2-(1,3-benzoxazol-2-yl)quinoline] | 5.39 µM
COc1ccc(OC)c(NC(=O)CSc2nnnn2-c2ccc3c(c2)OCO3)c1 [2-(1-Benzo[1,3]dioxol-5-yl-1H-tetrazol-5-ylsulfanyl)-N-(2,5-dimethoxy-phenyl)-acetamide] | 2.69 µM
CCn1c(C)nc2cc(-c3nc4n(n3)Cc3ccccc3-4)ccc21 [2-(1-ethyl-2-methyl-5-benzimidazolyl)-5H-[1,2,4]triazolo[5,1-a]isoindole] | > 0.00503 µM
CCN1C=CC(=C2C(=O)c3ccccc3C2=O)C=C1 [2-(1-ethyl-4-pyridinylidene)indene-1,3-dione] | 1.34 µM
c1c2c(cc3sc(N4CCCCC4)nc13)OCCO2 [2-(1-piperidinyl)-6,7-dihydro-[1,4]dioxino[2,3-f][1,3]benzothiazole] | > 3.67 µM
CCCN1C=CC(=C2C(=O)c3ccccc3C2=O)C=C1 [2-(1-propyl-4-pyridinylidene)indene-1,3-dione] | 0.431 µM
Cc1cnc(NC(=O)COc2ccccc2Cl)s1 [2-(2-chloranylphenoxy)-N-(5-methyl-1,3-thiazol-2-yl)ethanamide] | 5.63 µM
Cn1c(-c2ccco2)nc2cc3ccccc3cc21 [2-(2-furanyl)-3-methylbenzo[f]benzimidazole] | > 3.67 µM
c1ccc2c(c1)CCN(c1nc3cc4c(cc3s1)OCCO4)C2 [2-(3,4-dihydro-1H-isoquinolin-2-yl)-6,7-dihydro-[1,4]dioxino[2,3-f][1,3]benzothiazole] | 4.35 µM
COc1ccc(CC(=O)Nc2cccc(-c3nnc(-c4cccc(C)c4)o3)c2)cc1OC [2-(3,4-dimethoxyphenyl)-N-[3-[5-(3-methylphenyl)-1,3,4-oxadiazol-2-yl]phenyl]acetamide] | 5.9 µM
Nc1cccc(-c2nc3ccc(N)cc3s2)c1 [2-(3-Amino-phenyl)-benzothiazol-6-ylamine] | > 3.67 µM
O=C(CSC1=NCCS1)Nc1ccnc2ccccc12 [2-(4,5-dihydro-1,3-thiazol-2-ylsulfanyl)-N-quinolin-4-yl-ethanamide] | 5.95 µM
Cc1nnc(Sc2nc(Sc3nnc(C)s3)nc(N3CCN(C)CC3)n2)s1 [2-(4-Methyl-piperazin-1-yl)-4,6-bis-(5-methyl-[1,3,4]thiadiazol-2-ylsulfanyl)-[1,3,5]triazine] | 3.55 µM
Cc1oc2nc(SCC(=O)NCc3cccnc3)nc(N)c2c1C [2-(4-amino-5,6-dimethylfuro[2,3-d]pyrimidin-2-yl)sulfanyl-N-(pyridin-3-ylmethyl)acetamide] | > 99 µM
CN1CCN(C(=O)COc2ccc(-c3nc4ccccc4s3)cc2)CC1 [2-[4-(1,3-benzothiazol-2-yl)phenoxy]-1-(4-methyl-1-piperazinyl)ethanone] | 5.28 µM

Continued, values first:

IC50 | Compound
> 3.67 µM | COc1ccc(-c2cc3nc4n(c(=O)c3s2)CCC4)cc1 [2-(4-methoxyphenyl)-6,7-dihydropyrrolo[1,2-a]thieno[3,2-d]pyrimidin-9(5H)-one]
7.8 µM | COc1ccc(-c2cc3nc4n(c(=O)c3s2)CCOC4)cc1 [2-(4-methoxyphenyl)-7,8-dihydro-5H-thieno[1,2]pyrimido[4,5-a][1,4]oxazin-10-one]
0.329 µM | CC1CCN(c2nc3ccc(C(=O)O)cc3s2)CC1 [2-(4-methyl-1-piperidinyl)-1,3-benzothiazole-6-carboxylic acid]
> 3.67 µM | c1c2c(cc3sc(N4CCOCC4)nc13)OCCO2 [2-(4-morpholinyl)-6,7-dihydro-[1,4]dioxino[2,3-f][1,3]benzothiazole]
0.259 µM | CCOc1ccc(-c2nc(CSCC(=O)NCc3ccco3)c(C)o2)cc1 [2-({[2-(4-ethoxyphenyl)-5-methyl-1,3-oxazol-4-yl]methyl}thio)-N-(2-furylmethyl)acetamide]
4 µM | CCOc1ccc(-c2nc(CSCC(=O)NCCN3CCOCC3)c(C)o2)cc1 [2-({[2-(4-ethoxyphenyl)-5-methyl-1,3-oxazol-4-yl]methyl}thio)-N-(2-morpholin-4-ylethyl)acetamide]
5.56 µM | CCc1ccc(-c2nc(CSCC(=O)NCCCN3CCCC3=O)c(C)o2)cc1 [2-({[2-(4-ethylphenyl)-5-methyl-1,3-oxazol-4-yl]methyl}thio)-N-[3-(2-oxopyrrolidin-1-yl)propyl]acetamide]
> 99 µM | COc1cc(CC(NC(C)=O)C(=O)NC2CCN(c3nc(C)cc(C)c3C#N)CC2)cc(OC)c1 (stereo unspecified) [2-Acetylamino-N-(3'-cyano-4',6'-dimethyl-3,4,5,6-tetrahydro-2H-[1,2']bipyridinyl-4-yl)-3-(3,5-dimethoxy-phenyl)-propionamide]
0.666 µM | Nc1nc(Cl)nc2c1ncn2[C@H]1C[C@H](O)[C@@H](CO)O1 [2-CHLORO-2'-DEOXYADENOSINE]
> 99 µM | CN(C)c1nc(N)nc(CSc2nnnn2-c2cccc3ccccc23)n1 [2-N,2-N-dimethyl-6-[(1-naphthalen-1-yltetrazol-5-yl)sulfanylmethyl]-1,3,5-triazine-2,4-diamine]
9.37 µM | CCCCNc1cc(C)nc(NCc2ccccc2)n1 [2-N-benzyl-4-N-butyl-6-methylpyrimidine-2,4-diamine]
5.61 µM | Cc1cc(C(=O)CN2C(=O)c3ccccc3S2(=O)=O)c(C)n1CC1CCCO1 (stereo unspecified) [2-[2-[2,5-dimethyl-1-(2-oxolanylmethyl)-3-pyrrolyl]-2-oxoethyl]-1,1-dioxo-1,2-benzothiazol-3-one]
8.95 µM | CCOC(=O)CS(=O)(=O)c1nc(-c2ccc(F)cc2)cc(C(F)(F)F)n1 [2-[4-(4-fluorophenyl)-6-(trifluoromethyl)pyrimidin-2-yl]sulfonylacetic acid ethyl ester]
9.02 µM | Cc1cc(N2CCN(c3nc4ccccc4s3)CC2)n2ncnc2n1 [2-[4-(5-methyl-[1,2,4]triazolo[1,5-a]pyrimidin-7-yl)-1-piperazinyl]-1,3-benzothiazole]

Same assay, conditions: inactive by the depositor's call

Compound | IC50
Cc1cc(C)n2nc(SCC(=O)c3cc(C)n(-c4cc(C)on4)c3C)nc2n1 [1-[2,5-dimethyl-1-(5-methyl-1,2-oxazol-3-yl)pyrrol-3-yl]-2-[(5,7-dimethyl-[1,2,4]triazolo[1,5-a]pyrimidin-2-yl)sulfanyl]ethanone] | 16.8 µM
CC(=O)c1ccc(N2CCN(c3ccc(C(F)(F)F)cn3)CC2)cc1 [1-[4-[4-[5-(trifluoromethyl)-2-pyridinyl]-1-piperazinyl]phenyl]ethanone] | 11.4 µM
CC(=O)N1CCc2cc(S(=O)(=O)NCCC3=CCCCC3)ccc21 [1-acetyl-N-(2-cyclohex-1-en-1-ylethyl)indoline-5-sulfonamide] | 17.6 µM
COc1cc2c(cc1OC)C(C)N(C(=O)c1cc3ccccc3o1)CC2 (stereo unspecified) [1-benzofuran-2-yl-(6,7-dimethoxy-1-methyl-3,4-dihydro-1H-isoquinolin-2-yl)methanone] | 19 µM
O=C1c2ccccc2S(=O)(=O)N1Cc1nc2ccccc2s1 [2-(1,3-benzothiazol-2-ylmethyl)-1,1-bis(oxidanylidene)-1,2-benzothiazol-3-one] | 10.6 µM
CC1(C)CC(=O)C2=C(C1)Oc1nc3ccccc3cc1C2C(C#N)C#N (stereo unspecified) [2-(1-keto-3,3-dimethyl-4,12-dihydro-2H-chromeno[2,3-b]quinolin-12-yl)malononitrile] | 12.2 µM

Results, then the molecule that gave them:

IC50 | Compound
11 µM | O=C(CSc1nnc(Cn2nnc3ccccc32)o1)N(Cc1ccc(F)cc1)c1ccccc1 [2-(5-Benzotriazol-1-ylmethyl-[1,3,4]oxadiazol-2-ylsulfanyl)-N-(4-fluoro-benzyl)-N-phenyl-acetamide]
66.2 µM | Nc1ccc2oc(-c3cc(Br)ccc3Cl)nc2c1 [2-(5-bromanyl-2-chloranyl-phenyl)-1,3-benzoxazol-5-amine]
